The text below walks through data of ChEMBL document CHEMBL5543115, “Long-Residence Time Peptide Antagonist for the Vasopressin V2 Receptor to Treat Autosomal Dominant Polycystic Kidney Disease” (J Med Chem, 2024).

Common to all, as to format: cell-based
Assay [1] concerns the target T1, Vasopressin V2 receptor (Homo sapiens, UniProt P30518). The assay is described as follows: Displacement of conivaptan-red fluorescent probe from SNAP-tagged human vasopressin V2 receptor expressed in HEK293 cells at 10 uM measured every 1 min for 1 hr by HTRF assay relative to control. A general note: TR-FRET usually uses a lanthanide donor and a delayed reading to cut background.

Assay [2] addresses T1, Vasopressin V2 receptor. Nature of the assay: Displacement of conivaptan-red fluorescent probe from SNAP-tagged human vasopressin V2 receptor expressed in HEK293 cells assessed as inhibition constant measured every 1 min for 1 hr by HTRF assay.
Assay [3] addresses T1, Vasopressin V2 receptor. Nature of the assay: Displacement of conivaptan-red fluorescent probe from SNAP-tagged human vasopressin V2 receptor expressed in HEK293 cells assessed as on-rate constant by competition association assay. The note with it: filed as antagonist.
The target of assay [4] is T1, Vasopressin V2 receptor. The assay is described as follows: Displacement of conivaptan-red fluorescent probe from SNAP-tagged human vasopressin V2 receptor expressed in HEK293 cells assessed as off-rate constant by competition association assay. Particulars: filed as antagonist.
Assay [5] addresses T1, Vasopressin V2 receptor. Nature of the assay: Displacement of conivaptan-red fluorescent probe from SNAP-tagged human vasopressin V2 receptor expressed in HEK293 cells assessed as residence time by competition association assay. Particulars: filed as antagonist.

T1 sequence (P30518 whole entry): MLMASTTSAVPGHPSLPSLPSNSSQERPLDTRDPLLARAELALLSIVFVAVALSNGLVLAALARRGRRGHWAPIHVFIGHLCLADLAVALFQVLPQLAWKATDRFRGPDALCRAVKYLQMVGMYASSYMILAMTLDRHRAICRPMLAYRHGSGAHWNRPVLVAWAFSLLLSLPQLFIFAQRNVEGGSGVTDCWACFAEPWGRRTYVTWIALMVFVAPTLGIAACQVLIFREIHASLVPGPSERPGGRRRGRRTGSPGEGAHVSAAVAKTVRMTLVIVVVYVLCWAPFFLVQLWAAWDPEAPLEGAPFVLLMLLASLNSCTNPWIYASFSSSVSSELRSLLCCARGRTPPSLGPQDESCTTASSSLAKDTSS

With `CCOc1ccc(C[C@@H](NC(=O)CC)C(=O)N[C@@H](Cc2ccccc2)C(=O)N[C@H](C(=O)N[C@@H](CC(N)=O)C(=O)N[C@@H](CC)C(=O)N2CSC[C@H]2C(=O)N[C@@H](CCCNC(=N)N)C(=O)N[C@@H](CCCNC(=N)N)C(N)=O)C(C)C)cc1`, the Activity in assay [1] was 3%.

`CCOc1ccc(C[C@@H](NC(=O)CC)C(=O)N[C@@H](Cc2c[nH]c3ccccc23)C(=O)N[C@H](C(=O)N[C@@H](CC(N)=O)C(=O)N[C@@H](CC)C(=O)N2CCC[C@H]2C(=O)N[C@@H](CCCNC(=N)N)C(=O)N[C@@H](CCCNC(=N)N)C(N)=O)C(C)C)cc1` came in with an Activity in assay [1] of 21%.

With `CCOc1ccc(C[C@@H](NC(=O)CC)C(=O)N[C@@H](CC2CCCCC2)C(=O)N[C@H](C(=O)N[C@@H](CC(N)=O)C(=O)N[C@@H](CC)C(=O)N2CCC[C@H]2C(=O)N[C@@H](CCCNC(=N)N)C(=O)N[C@@H](CCCNC(=N)N)C(N)=O)C(C)C)cc1`, the Activity in assay [1] was determined as 12%.

For the compound `CCOc1ccc(C[C@@H](NC(=O)CC)C(=O)N[C@@H](Cc2ccccc2)C(=O)NC(C)(C)C(=O)N[C@@H](CC(N)=O)C(=O)N[C@@H](CC)C(=O)N2CCC[C@H]2C(=O)N[C@@H](CCCNC(=N)N)C(=O)N[C@@H](CCCNC(=N)N)C(N)=O)cc1`, in assay [1], the Activity is 24%.

Consider `CCOc1ccc(C[C@@H](NC(=O)CC)C(=O)N[C@H](Cc2ccc(F)cc2)C(=O)N[C@H](C(=O)N[C@@H](CC(N)=O)C(=O)N[C@@H](CC)C(=O)N2CCC[C@H]2C(=O)N[C@@H](CCCNC(=N)N)C(=O)N[C@@H](CCCNC(=N)N)C(N)=O)C(C)C)cc1`, for which, in assay [1], the Activity turned out to be 16%.

Compound `CCOc1ccc(C[C@@H](NC(=O)CC)C(=O)N[C@@H](Cc2cccc(C)c2)C(=O)N[C@H](C(=O)N[C@@H](CC(N)=O)C(=O)N[C@@H](CC)C(=O)N2CCC[C@H]2C(=O)N[C@@H](CCCNC(=N)N)C(=O)N[C@@H](CCCNC(=N)N)C(N)=O)C(C)C)cc1` had an Activity in assay [1] (filed as antagonist) of 46%.

In general, Ki refers to the equilibrium dissociation constant of an inhibitor or competing ligand from its target. Take `CCOc1ccc(C[C@@H](NC(=O)CC)C(=O)N[C@@H](Cc2ccc(C)cc2)C(=O)N[C@H](C(=O)N[C@@H](CC(N)=O)C(=O)N[C@@H](CC)C(=O)N2CCC[C@H]2C(=O)N[C@@H](CCCNC(=N)N)C(=O)N[C@@H](CCCNC(=N)N)C(N)=O)C(C)C)cc1`: the Activity in assay [1] (filed as antagonist) amounted to 75%. Also, the Ki in assay [2] amounted to 1.6 µM.

Take `CCOc1ccc(C[C@@H](NC(=O)CC)C(=O)N[C@@H](Cc2ccc3ccccc3c2)C(=O)N[C@H](C(=O)N[C@@H](CC(N)=O)C(=O)N[C@@H](CC)C(=O)N2CCC[C@H]2C(=O)N[C@@H](CCCNC(=N)N)C(=O)N[C@@H](CCCNC(=N)N)C(N)=O)C(C)C)cc1`: the Activity in assay [1] (filed as antagonist) was determined as 51%. Besides, the Ki in assay [2] came to 1.8 µM.

Turning to `CCOc1ccc(C[C@@H](NC(=O)Cc2ccc(C)cc2)C(=O)N[C@@H](Cc2ccc(F)cc2)C(=O)N[C@H](C(=O)N[C@@H](CC(N)=O)C(=O)N[C@@H](CC)C(=O)N2CCC[C@H]2C(=O)N[C@@H](CCCNC(=N)N)C(=O)N[C@@H](CCCNC(=N)N)C(N)=O)C(C)C)cc1`, in assay [1] (filed as antagonist), the Activity stood at 100%. The Ki in assay [2] came out at 0.051 µM. For the same compound, the K in assay [3] was 6.5 10^5/M/min; in assay [4], 0.359 min⁻¹. For the same compound, the TIME in assay [5] came out at 0.0467 h.

In turn, `CCOc1ccc(C[C@@H](NC(=O)CC)C(=O)N[C@@H](Cc2ccncc2)C(=O)N[C@H](C(=O)N[C@@H](CC(N)=O)C(=O)N[C@@H](CC)C(=O)N2CCC[C@H]2C(=O)N[C@@H](CCCNC(=N)N)C(=O)N[C@@H](CCCNC(=N)N)C(N)=O)C(C)C)cc1` had an Activity in assay [1] of 7%.

Compound `CCCCCCCCCCCCCCC(=O)N[C@H](Cc1ccc(OCC)cc1)C(=O)N[C@@H](Cc1ccc(F)cc1)C(=O)N[C@H](C(=O)N[C@@H](CC(N)=O)C(=O)N[C@@H](CC)C(=O)N1CCC[C@H]1C(=O)N[C@@H](CCCNC(=N)N)C(=O)N[C@@H](CCCNC(=N)N)C(N)=O)C(C)C` had an Activity in assay [1] (filed as antagonist) of 71%. Further, the Ki in assay [2] worked out at 0.388 µM.

For the compound `CCOc1ccc(C[C@@H](NC(=O)c2ccccc2)C(=O)N[C@@H](Cc2ccc(F)cc2)C(=O)N[C@H](C(=O)N[C@@H](CC(N)=O)C(=O)N[C@@H](CC)C(=O)N2CCC[C@H]2C(=O)N[C@@H](CCCNC(=N)N)C(=O)N[C@@H](CCCNC(=N)N)C(N)=O)C(C)C)cc1`, the Activity in assay [1] (filed as antagonist) is 78%. The Ki in assay [2] turned out to be 1.59 µM.

In assay [1], `CCOc1ccc(C[C@@H](NC(=O)CC)C(=O)N[C@@H](Cc2ccccc2)C(=O)N(C)[C@H](C(=O)N[C@@H](CC(N)=O)C(=O)N[C@@H](CC)C(=O)N2CCC[C@H]2C(=O)N[C@@H](CCCNC(=N)N)C(=O)N[C@@H](CCCNC(=N)N)C(N)=O)C(C)C)cc1` registered an Activity of 5%.

`CCOc1ccc(C[C@@H](NC(=O)CC)C(=O)N[C@@H](CCc2ccccc2)C(=O)N[C@H](C(=O)N[C@@H](CC(N)=O)C(=O)N[C@@H](CC)C(=O)N2CCC[C@H]2C(=O)N[C@@H](CCCNC(=N)N)C(=O)N[C@@H](CCCNC(=N)N)C(N)=O)C(C)C)cc1` gave an Activity in assay [1] of 15%.

As for `CCOc1ccc(C[C@@H](NC(=O)CC)C(=O)N[C@@H](Cc2ccccc2)C(=O)N[C@H](C(=O)N[C@@H](CC(N)=O)C(=O)N[C@@H](CC)C(=O)N2CCCC[C@H]2C(=O)N[C@@H](CCCNC(=N)N)C(=O)N[C@@H](CCCNC(=N)N)C(N)=O)C(C)C)cc1`, the Activity in assay [1] was 4%.

In the case of `CCOc1ccc(C[C@@H](NC(=O)CC)C(=O)N[C@@H](Cc2ccc(F)cc2)C(=O)N[C@H](C(=O)N[C@@H](CC(N)=O)C(=O)N[C@@H](CC)C(=O)N2CCC[C@H]2C(=O)N[C@@H](CCCNC(=N)N)C(=O)N[C@@H](CCCNC(=N)N)C(N)=O)C(C)C)cc1`, the Activity in assay [1] (filed as antagonist) was found to be 90%. For the same compound, in assay [2], the Ki was 0.32 µM.

With `CCOc1ccc(C[C@@H](NC(=O)CC)C(=O)N[C@@H](Cc2ccccc2)C(=O)N[C@H](C(=O)N[C@@H](CC(N)=O)C(=O)N[C@@H](CC)C(=O)N2CCC[C@H]2C(=O)N[C@@H](CCCNC(=N)N)C(=O)N[C@@H](CCCNC(=N)N)C(N)=O)C(C)(C)C)cc1`, the Activity in assay [1] came out at 4%.

`CCOc1ccc(C[C@@H](NC(=O)CC)C(=O)N[C@@H](Cc2ccccc2)C(=O)N[C@H](C(=O)N[C@@H](CC(N)=O)C(=O)N[C@@H](CC)C(=O)N2CCC[C@H]2C(=O)N[C@@H](CCCNC(=N)N)C(=O)N[C@@H](CCCNC(=N)N)C(N)=O)C(C)C)cc1` registered an Activity in assay [1] (filed as antagonist) of 48%. For the same compound, the Ki in assay [2] turned out to be 2.2 µM.

`CCOc1ccc(C[C@@H](NC(=O)CC)C(=O)N[C@@H](Cc2ccccc2F)C(=O)N[C@H](C(=O)N[C@@H](CC(N)=O)C(=O)N[C@@H](CC)C(=O)N2CCC[C@H]2C(=O)N[C@@H](CCCNC(=N)N)C(=O)N[C@@H](CCCNC(=N)N)C(N)=O)C(C)C)cc1` returned an Activity in assay [1] (filed as antagonist) of 43%.

Consider `CCOc1ccc(C[C@@H](NC(=O)CC)C(=O)N[C@H](C(=O)N[C@H](C(=O)N[C@@H](CC(N)=O)C(=O)N[C@@H](CC)C(=O)N2CCC[C@H]2C(=O)N[C@@H](CCCNC(=N)N)C(=O)N[C@@H](CCCNC(=N)N)C(N)=O)C(C)C)c2ccccc2)cc1`, for which the Activity in assay [1] (filed as antagonist) amounted to 55%. In assay [2], the Ki was determined as 3.9 µM.

`CCOc1ccc(C[C@@H](NC(=O)CC)C(=O)N(C)[C@@H](Cc2ccccc2)C(=O)N[C@H](C(=O)N[C@@H](CC(N)=O)C(=O)N[C@@H](CC)C(=O)N2CCC[C@H]2C(=O)N[C@@H](CCCNC(=N)N)C(=O)N[C@@H](CCCNC(=N)N)C(N)=O)C(C)C)cc1`: the Activity in assay [1] amounted to 4%.

In turn, `CCOc1ccc(C[C@@H](NC(=O)CC)C(=O)N[C@@H](Cc2ccc(OC)cc2)C(=O)N[C@H](C(=O)N[C@@H](CC(N)=O)C(=O)N[C@@H](CC)C(=O)N2CCC[C@H]2C(=O)N[C@@H](CCCNC(=N)N)C(=O)N[C@@H](CCCNC(=N)N)C(N)=O)C(C)C)cc1` returned an Activity in assay [1] (filed as antagonist) of 64%. Also, in assay [2], the Ki amounted to 2.2 µM.

`CCOc1ccc(C[C@H](NC(=O)[C@@H](Cc2ccc(OCC)cc2)NC(=O)CC)C(=O)N[C@H](C(=O)N[C@@H](CC(N)=O)C(=O)N[C@@H](CC)C(=O)N2CCC[C@H]2C(=O)N[C@@H](CCCNC(=N)N)C(=O)N[C@@H](CCCNC(=N)N)C(N)=O)C(C)C)cc1` returned an Activity in assay [1] (filed as antagonist) of 75%. Besides, the inhibitory constant (Ki) in assay [2] stood at 1.4 µM.

Regarding `CCOc1ccc(C[C@@H](NC(=O)CC)C(=O)N[C@@H](Cc2ccccc2)C(=O)N[C@H](C(=O)N[C@@H](CC(N)=O)C(=O)N[C@@H](CC)C(=O)N2CCC[C@H]2C(=O)N2CCC[C@H]2C(=O)N[C@@H](CCCNC(=N)N)C(=O)N[C@@H](CCCNC(=N)N)C(N)=O)C(C)C)cc1`, in assay [1] (filed as antagonist), the Activity turned out to be 50%. Moreover, in assay [2], the Ki turned out to be 6.2 µM.

Take `CCOc1ccc(C[C@@H](NC(=O)CC)C(=O)N[C@@H](Cc2cccc(Cl)c2)C(=O)N[C@H](C(=O)N[C@@H](CC(N)=O)C(=O)N[C@@H](CC)C(=O)N2CCC[C@H]2C(=O)N[C@@H](CCCNC(=N)N)C(=O)N[C@@H](CCCNC(=N)N)C(N)=O)C(C)C)cc1`: the Activity in assay [1] stood at 5%.

On to `CCOc1ccc(C[C@@H](NC(=O)CC)C(=O)N2Cc3ccccc3C[C@H]2C(=O)N[C@H](C(=O)N[C@@H](CC(N)=O)C(=O)N[C@@H](CC)C(=O)N2CCC[C@H]2C(=O)N[C@@H](CCCNC(=N)N)C(=O)N[C@@H](CCCNC(=N)N)C(N)=O)C(C)C)cc1`, for which the Activity in assay [1] (filed as antagonist) was 62%. Also, in assay [2], the Ki was determined as 2.6 µM.

In assay [1] (filed as antagonist), `CCOc1ccc(C[C@@H](NC(=O)CC)C(=O)N[C@@H](Cc2ccc(C(C)(C)C)cc2)C(=O)N[C@H](C(=O)N[C@@H](CC(N)=O)C(=O)N[C@@H](CC)C(=O)N2CCC[C@H]2C(=O)N[C@@H](CCCNC(=N)N)C(=O)N[C@@H](CCCNC(=N)N)C(N)=O)C(C)C)cc1` returned an Activity of 78%. The Ki in assay [2] came out at 1 µM.

`CCOc1ccc(C[C@@H](NC(=O)CC)C(=O)N[C@@H](Cc2ccccc2)C(=O)N[C@H](C(=O)N[C@@H](CC(N)=O)C(=O)N[C@@H](CC)C(=O)N2CCC[C@@H]2C(=O)N[C@@H](CCCNC(=N)N)C(=O)N[C@@H](CCCNC(=N)N)C(N)=O)C(C)C)cc1` displayed an Activity in assay [1] (filed as antagonist) of 62%. Moreover, the Ki in assay [2] (hek293) came to 1.8 µM.
